These results are taken from patent US11142526B2, “Spirocycle compounds and methods of making and using same” (H. Lundbeck A/S, priority 2017, dated 2021).

pIC50: −log10 of the molar value. Read-outs that look alike come from different tables or passages of the source.

The target of assay [1] is T1, MAGL (Mus musculus (Mouse), UniProt O35678). Kind of assay: Mouse brain proteomes from inhibitor treated mice (oral gavage, brain MAGL activity 4 h after administration). The format is in vivo. The conditions noted are these: 5 mg/kg oral gavage. On the procedure:
Preparation of Mouse Brain Proteomes from Inhibitor Treated Mice.
Inhibitors were administered to wild-type C57B1/6J by oral gavage in a vehicle of polyethylene glycol.

In assay [2] the target is MAGL (Homo sapiens (Human), UniProt Q99685). Kind of assay: In vitro competitive activity-based protein profiling (gel-based, FP-Rh or HT-01 probe). It counts as biochemical. The conditions noted are these: for pIC50: read-out: MAGL Human PC3 (IC50). Here is the method: In Vitro Competitive Activity-Based Protein Profiling.
Proteomes (human prefrontal cortex or cell membrane fractions) (50 μL, 1.0 mg/mL total protein concentration) were preincubated with varying concentrations of inhibitors at 37° C. After 30 min, FP-Rh or HT-01 (1.0 μL, 50 μM in DMSO) was added and the mixture was incubated for another 30 min at room temperature. Reactions were quenched with SDS loading buffer (15 μL—4×) and run on SDS-PAGE.

Assay [3] concerns the target T1, MAGL. Nature of the assay: In vitro competitive activity-based protein profiling, mouse brain proteome. It counts as biochemical. The conditions noted are these: for inhibition at 1 µM: mouse; for pIC50: mouse brain.
[4] abbreviates: human PC3, read-out: MAGL % Inhibition at 1 μM (human PC3).
Where [5] appears, read: human PFC (prefrontal cortex), read-out: MAGL % Inhibition at 1 μM (human PFC).

In general, inhibition refers to the share of the control response that was lost under treatment. The pIC50 is the IC50 on a negative log10 scale, so that one unit is a factor of ten.

T1 sequence (O35678 whole entry): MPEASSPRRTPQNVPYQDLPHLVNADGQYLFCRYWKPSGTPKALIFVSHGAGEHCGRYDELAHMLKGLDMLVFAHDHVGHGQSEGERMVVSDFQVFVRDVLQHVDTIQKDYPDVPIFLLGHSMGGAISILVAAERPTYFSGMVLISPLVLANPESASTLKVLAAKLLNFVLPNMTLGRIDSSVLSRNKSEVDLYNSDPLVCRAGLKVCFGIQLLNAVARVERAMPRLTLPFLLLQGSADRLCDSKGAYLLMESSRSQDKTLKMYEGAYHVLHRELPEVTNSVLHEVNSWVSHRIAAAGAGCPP
MAGL (Homo sapiens (Human), UniProt Q99685), sequence (Q99685 whole entry): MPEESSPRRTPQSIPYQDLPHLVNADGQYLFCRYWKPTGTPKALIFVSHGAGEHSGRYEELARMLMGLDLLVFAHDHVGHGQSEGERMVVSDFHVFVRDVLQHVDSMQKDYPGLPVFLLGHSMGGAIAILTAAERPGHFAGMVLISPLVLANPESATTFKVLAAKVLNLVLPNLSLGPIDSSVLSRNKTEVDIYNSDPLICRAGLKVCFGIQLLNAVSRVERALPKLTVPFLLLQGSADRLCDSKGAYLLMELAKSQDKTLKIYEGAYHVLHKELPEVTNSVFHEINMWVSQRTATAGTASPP

Consider `CC1(NC(=O)c2nnc3n2CCN(C2CCOC2)C3)CCN(C(=O)OC(C(F)(F)F)C(F)(F)F)CC1` (centres unmarked) [Example 208, 1,1,1,3,3,3-Hexafluoropropan-2-yl 4-methyl-4-(7-(THF-3-yl)-5,6,7,8-tetrahydro-[1,2,4]triazolo [4,3-a]pyrazine-3-carboxamido) piperidine-1-carboxylate], for which the “MAGL % Inhibition at 5 mg/kg (Mouse)” value in assay [1] was “### (% inhibition is greater than or equal to 75%)”. Moreover, the inhibition at 1 µM in assay [2] (setting [4]), in assay [2] (setting [5]) and in assay [3] was over 75% each time. Moreover, the negative-log IC50 (pIC50) in assay [2] (human PC3) was over 7.00.
With `CC1(NC(=O)c2nnc3n2CCN(C2CCOCC2)C3)CCN(C(=O)OC(C(F)(F)F)C(F)(F)F)CC1` [Example 209, 1,1,1,3,3,3-Hexafluoropropan-2-yl 4-methyl-4-(7-(tetrahydro-2H-pyran-4-yl)-5,6,7,8-tetrahydro-[1,2,4]triazolo [4,3-a]pyrazine-3-carboxamido) piperidine-1-carboxylate], the “MAGL % Inhibition at 5 mg/kg (Mouse)” value in assay [1] is given as “### (% inhibition is greater than or equal to 75%)”. The inhibition at 1 µM in assay [2] (setting [4]), in assay [2] (setting [5]) and in assay [3] was over 75% in each case. In addition, the pIC50 in assay [2] (human PC3) is over 7.00.
In the case of `CC(C)n1cc(CN2CCCC23CCN(C(=O)OC(C(F)(F)F)C(F)(F)F)CC3)c(-c2ccccc2F)n1` [Example 221, 1,1,1,3,3,3-Hexafluoropropan-2-yl 1-((3-(2-fluorophenyl)-1-isopropyl-1H-pyrazol-4-yl)methyl)-1,8-diazaspiro[4.5] decane-8-carboxylate], the “MAGL % Inhibition at 5 mg/kg (Mouse)” value in assay [1] is on record as “### (% inhibition is greater than or equal to 75%)”. Moreover, in assay [2] (human PC3), the pIC50 was over 7.00. For the same compound, in assay [3], the inhibition at 1 µM is over 75% and the pIC50 is over 7.00.
`O=C(OC(C(F)(F)F)C(F)(F)F)N1CCC2(CCCN2Cc2cnc(N3CCCC3)s2)CC1` [Example 226, 1,1,1,3,3,3-Hexafluoropropan-2-yl 1-((2-(pyrrolidin-1-yl)thiazol-5-yl)methyl)-1,8-diazaspiro[4.5]decane-8-carboxylate]: the “MAGL % Inhibition at 5 mg/kg (Mouse)” value in assay [1] is recorded as “### (% inhibition is greater than or equal to 75%)”. The pIC50 in assay [2] (human PC3) and in assay [3] was over 7.00 throughout. The compound also returned an inhibition at 1 µM in assay [3] of over 75%.
With `O=C(OC(C(F)(F)F)C(F)(F)F)N1CCC2(CCCN2Cc2cnc3ccccn23)CC1` [Example 228, 1,1,1,3,3,3-Hexafluoropropan-2-yl 1-(imidazo [1,2-a]pyridin-3-ylmethyl)-1,8-diazaspiro[4.5]decane-8-carboxylate], in assay [1], the “MAGL % Inhibition at 5 mg/kg (Mouse)” value is “### (% inhibition is greater than or equal to 75%)”. Further, in assay [2] (human PC3), the pIC50 is over 7.00. Moreover, in assay [3], the inhibition at 1 µM is over 75% and the pIC50 was over 7.00.
Turning to `O=C(OC(C(F)(F)F)C(F)(F)F)N1CCC2(CCCN2Cc2cnc3ccc(Cl)cn23)CC1` [Example 229, 1,1,1,3,3,3-Hexafluoropropan-2-yl 1-((6-chloroimidazo[1,2-a]pyridin-3-yl)methyl)-1,8-diazaspiro[4.5]decane-8-carboxylate], in assay [1], the “MAGL % Inhibition at 5 mg/kg (Mouse)” value is “### (% inhibition is greater than or equal to 75%)”. Besides, the pIC50 in assay [2] (human PC3) was over 7.00. In addition, in assay [3], the inhibition at 1 µM is over 75% and the pIC50 is over 7.00.
